Measured values from US20190365776A1, “THERAPEUTIC AGENT FOR OCULAR FUNDUS DISEASE” (KYUSHU UNIVERSITY, NATIONAL UNIVERSITY CORPORATION, priority 2013, published 2019).

Columns and labels:
[1] = tested on: model mice with hyperoxia-induced retinopathy; conditions: intravitreally administered; Non-Patent Document 6; cited from earlier work
[2] = tested on: VEGF-induced neovascularization; conditions: Non-Patent Documents 2 and 3; cited from earlier work
[3] = tested on: mice OIR (Oxygen-Induced Retinopathy) model; assay: Mice OIR (oxygen-induced retinopathy) model, flat-mounted retina; assay type: in vivo, C57BL/6JJcl mice; conditions: 0.4% solution, ocular instillation 20 μL three times a day, day 12 to day 17 after birth, flat mount
Experimental: The effectiveness of (S)-(−)-1-(4-fluoro-5-isoquinolinesulfonyl)-2-methyl-1,4-homopiperazine (compound 1) in a mice OIR model commonly used as a model of ischemic retinopathy such as diabetic retinopathy was examined in the following manner. Compound 1 solutions: 0.4% solution, 0.8% solution (instillation volume: 20 μL) Fasudil solution: 0.4% solution (instillation volume: 20 μL) Test animals: C57BL/6JJcl mice (sex: male, 8 to 14 mice per group) C57BL/6JJcl mice born on the same day were reared in a 75%-oxygen environment from day 7 after birth, and were then transferred to a normal indoor environment on day 12 after birth to start administration by ocular instillation. Test groups were a saline instillation group (control), a 0.4% compound 1 solution instillation group, a 0.8% compound 1 solution instillation group, and a 0.4% fasudil solution instillation group, and saline, the compound 1 solution, or the fasudil solution was administered by ocular instillation three times a day. On day 17 after birth, ischemic retinal areas (non-perfused areas) and neovascular areas were quantified for evaluation by flat-mounting or fluorescein fundus angiography. More specifically, 1 g/kg of pentobarbital (Nembutal) was administered intraperitoneally for euthanasia under deep anesthesia, and then both eyeballs were excised and fixed with 4% paraformaldehyde (PFA) at 37° C. for 1 hour, and the corneal limbus was circumferentially incised to remove the cornea and iris from the eyeball. Then, after fixation with 4% PFA at 37° C. for 1 hour, the lens, sclera, and choroid were removed, and the eye cup including the retina was isolated. Further, the retina was fixed with 4% PFA at 37° C. for 3 hours, washed with PBS three times (15 min per wash, 37° C.), dehydrated (methanol 50% 100%, 10 min per methanol treatment, 37° C.), washed with PBS three times (15 min per wash, 37° C.), and blocked with Blocking Buffer (1% BSA, 0.5% Triton-X in PBS) for 60 minutes (37° C.). Then, the retina was treated with a primary antibody (0.7% FITC-conjugates Anti-lectin Ab in PBS, 4° C., overnight) and washed with PBS three times (15 min per wash, 37° C.). Then, 4 to 6 cuts were radially made in the eye cup, and the flat-mounted retina was covered with Crystal Mount. Then, the image of the flat-mounted retina was taken with a fluorescence microscope (BZ-9000, KEYENCE Corp, Osaka, Japan), and the proportion of the non-perfused area to the entire retina and the proportion of the neovascular area to the entire retina were calculated by the following formulas in NIH image J software. The thus obtained values were converted to relative values by regarding the obtained values of the saline instillation group (control) as 100%, and statistical analysis was performed by Wilcoxon test. Non-perfused area=area of avascular region/area of entire retina Neovascular area=area of neovascular region/area of entire retina

diabetic model rats = conditions: intravitreally administered; Non-Patent Documents 4 and 5; cited from earlier work

| Structure (SMILES) | effect on retinal neovascularization [1] | effect on VEGF-induced neovascularization [2] | relative value of the neovascular area (saline instillation group = 100%) [3] [%] | relative value of the non-perfused area (saline instillation group = 100%) [3] [%] | effect on endothelial cells in diabetic model rats (diabetic model rats) |
| --- | --- | --- | --- | --- | --- |
| C[C@@H](N)[C@H]1CC[C@H](C(=O)Nc2ccncc2)CC1 [Y-27632] | effect of suppressing retinal neovascularization | effect of inhibiting VEGF-induced neovascularization | – | – | – |
| O=S(=O)(c1cccc2cnccc12)N1CCCNCC1 [fasudil, reference compound] | – | effect of inhibiting VEGF-induced neovascularization | 102.2 | 107.7 | effect of protecting endothelial cells |
